Earlier results as cited in patent US10300068B2, “Method of treating insomnia” (priority 2015, dated 2019).

Tests used:
[1] = patients, assessed by questionnaire
[2] = co-administered with alcohol
[3] = Day 4, once-daily 40 mg, mild to moderate obstructive sleep apnea, n=26; 90% CI 0.22 to 5.09
[4] = 20 mg, healthy adults
intestinal P-gp = intestinal P-gp (Homo sapiens, UniProt P08183); conditions: concomitant administration with digoxin
[5] = obese vs non-obese patients, women vs men
[6] = 40 mg non-elderly, 30 mg elderly; mild to moderate COPD, n=25
[7] = system: epicardial coronary arteries; conditions: patients with coronary artery disease

Sequence of intestinal P-gp (P08183 whole entry): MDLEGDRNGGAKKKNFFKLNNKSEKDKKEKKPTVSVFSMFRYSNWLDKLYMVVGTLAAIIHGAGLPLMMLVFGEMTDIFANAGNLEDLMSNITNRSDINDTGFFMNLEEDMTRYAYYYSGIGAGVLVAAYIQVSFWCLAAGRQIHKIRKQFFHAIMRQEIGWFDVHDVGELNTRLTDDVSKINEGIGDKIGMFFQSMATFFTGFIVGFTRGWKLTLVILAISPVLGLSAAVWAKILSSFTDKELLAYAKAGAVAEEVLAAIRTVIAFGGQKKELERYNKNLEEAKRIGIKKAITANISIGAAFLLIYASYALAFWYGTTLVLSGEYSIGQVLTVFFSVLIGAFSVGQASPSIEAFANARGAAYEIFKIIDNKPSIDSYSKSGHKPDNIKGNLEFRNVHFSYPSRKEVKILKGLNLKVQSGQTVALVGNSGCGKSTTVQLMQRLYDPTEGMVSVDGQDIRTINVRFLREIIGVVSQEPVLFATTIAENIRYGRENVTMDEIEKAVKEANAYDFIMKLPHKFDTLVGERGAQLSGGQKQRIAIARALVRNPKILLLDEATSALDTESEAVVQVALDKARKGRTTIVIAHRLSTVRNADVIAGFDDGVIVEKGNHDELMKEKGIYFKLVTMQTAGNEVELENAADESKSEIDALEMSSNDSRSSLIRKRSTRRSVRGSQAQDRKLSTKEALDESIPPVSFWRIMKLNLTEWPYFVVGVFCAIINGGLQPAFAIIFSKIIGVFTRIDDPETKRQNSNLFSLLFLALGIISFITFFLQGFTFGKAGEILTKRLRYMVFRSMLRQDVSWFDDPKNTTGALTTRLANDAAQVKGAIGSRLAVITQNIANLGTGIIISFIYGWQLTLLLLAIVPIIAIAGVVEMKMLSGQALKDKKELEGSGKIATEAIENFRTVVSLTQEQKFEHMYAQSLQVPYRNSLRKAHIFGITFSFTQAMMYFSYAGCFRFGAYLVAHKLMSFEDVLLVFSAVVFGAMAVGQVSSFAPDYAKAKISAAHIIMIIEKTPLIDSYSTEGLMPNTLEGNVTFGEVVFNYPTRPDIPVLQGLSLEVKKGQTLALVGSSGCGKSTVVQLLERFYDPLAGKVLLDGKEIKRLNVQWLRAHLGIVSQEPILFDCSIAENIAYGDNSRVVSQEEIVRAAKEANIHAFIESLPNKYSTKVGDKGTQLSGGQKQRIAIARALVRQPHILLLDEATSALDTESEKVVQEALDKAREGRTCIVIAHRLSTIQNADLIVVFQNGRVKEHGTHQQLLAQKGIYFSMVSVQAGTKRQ

Compound	suicidal ideation [1]	pharmacokinetics of BELSOMRA [2]	psychomotor impairment [2]	mean Apnea/Hypopnea Index treatment difference (suvorexant-placebo) [3]	driving ability [4]	digoxin levels (intestinal P-gp)	exposure [5]	respiratory depressant effects as measured by oxygen saturation [6]	physical dependence with prolonged use (completed clinical trials)	withdrawal symptoms after discontinuation (human, in vivo)	relaxation of epicardial coronary arteries [7]
Cc1ccc(-n2nccn2)c(C(=O)N2CCN(c3nc4cc(Cl)ccc4o3)CC[C@H]2C)c1 [BELSOMRA, suvorexant]	dose-dependent increase	no alteration	additive psychomotor impairment	2.7	impaired in some individuals	slightly increased	increased	no respiratory depressant effects	no evidence for physical dependence	no reported withdrawal symptoms	–
CCCc1nn(C)c2c(=O)[nH]c(-c3cc(S(=O)(=O)N4CCN(C)CC4)ccc3OCC)nc12 [sildenafil]	–	–	–	–	–	–	–	–	–	–	relax epicardial coronary arteries
